How the values were obtained:
[1] = tested on: 55 pharmacologically relevant receptors; design: method as in Massa et al., 2010; conditions: standard screening concentration; ref Massa et al., 2010; cited from earlier work
3T3-p75 cells = assay: NIH-3T3 cell survival (ViaLight); assay type: cell-based, mouse; conditions: serum-free medium, 72-96 h, PTX-BD4-3 1000 nM
Experimental: Fig. 2. PTX-BD4-3 promotes cell survival preferentially through TrkB. (A-D) Neurotrophin receptor-expressing NIH-3T3 cells were incubated in culture medium (CM) alone or in medium plus either the indicated neurotrophins (BDNF, NGF, NT-3) or PTX-BD4-3 or its parent compound LM22A-4 for 72-96 h, after which survival was measured using the ViaLight assay. […] Scale bar: 10 μm. (B) Survival dose-response curves for PTX-BD4-3 and LM22A-4 in 3T3-TrkB cells. ^§P≤0.001 compared to CM alone. (C) Representative images of 3T3-TrkA, 3T3-TrkC and 3T3-p75 cells grown in the presence of CM alone, CM+neurotrophin or CM+PTX-BD4-3. Scale bar: 10 μm. NGF, NT-3 and BDNF served as positive controls for 3T3-TrkA, 3T3-TrkC and 3T3-p75 cells, respectively. (D) PTX-BD4-3 (1000 nM) had no effect on survival of 3T3-TrkA, 3T3-TrkC or 3T3-p75 cells compared to medium alone. *P≤0.05, ***P≤0.001 compared to CM alone. For each determination in B and D, n=10-32 wells derived from four to five independent experiments. Statistical significance was determined by one-way ANOVA with Dunnett's post hoc multiple comparison test. (E,F) […] protein was extracted from human cementoblast-like cell (HCEM) cultures treated with either culture medium alone, BDNF, LM22A-4 or PTX-BD4-3, immunoprecipitated with anti-TrkB antibody and then probed sequentially on western blots with anti-Shc and anti-TrkB antibody. The ratio of Shc to TrkB in treated cultures was normalized and compared to control (CM alone) using Kruskal-Wallis ANOVA followed by Dunn's multiple comparisons test (*P≤0.05, ^§P≤0.001). n=13 independent experiments, and each protein sample was run on duplicate western blots and the normalized values averaged. RLUs, relative light units.
Mouse NIH-3T3 cells expressing TrkA (NIH-3T3-TrkA) were provided by Dr William Mobley (University of California at San Diego, San Diego, CA, USA), and NIH-3T3 cells expressing TrkB (NIH-3T3-TrkB) or TrkC (NIH-3T3-TrkC) were provided by Dr David Kaplan (University of Toronto, Toronto, ON, Canada). Cells were propagated in Dulbecco's modified Eagle medium (DMEM) supplemented with 10% fetal bovine serum (FBS; Invitrogen) and 200-400 µg/ml Geneticin. Cells were seeded into 24-well plates (30,000 cells/well) and cultured in medium consisting of 50% PBS and 50% DMEM without supplements. Following exposure to BDNF (20 ng/ml, 0.7 nM) or 10-1000 nM LM22A-4 or PTX-BD4-3 for 72-96 h, cells were suspended in 50 µl lysis buffer, transferred to white, opaque 96-well culture plates and survival was measured using the ViaLight Assay (Lonza Group, Rockland, ME, USA).

[2] = tested on: heterozygous (Het) female Mecp2 mutant mice; assay: Foot slip; assay type: in vivo, mouse; conditions: chronic treatment, 24 h after last treatment (data not shown)
Experimental: (§1) Small-molecule compounds were diluted in saline and delivered by i.p. injection. To define the acute effects of single drug treatments, behavioral testing was initiated 1 h after dosing. Durable effects of single drug treatments were evaluated 24 h after dosing. To define the effects of repeated dosing, mice were treated once every 3 days (q72 h) for 4 or 8 weeks, and behavioral testing was performed 24 h after the last dose.
Foot slip was used to assess locomotor coordination and spontaneous movement on a challenging substrate. Animals were placed on an elevated wire mesh surface (50 cm^2) with 1 cm^2 openings and allowed to freely explore for 5 min ([Starkey et al., 2005]). Total distance traveled was measured by a computer-operated animal activity system (ANY-maze, Stoelting). The total number of forepaw and hindpaw slips, where the foot came completely through the grate with no toes remaining on the grid, was manually counted, and the number of slips/cm traveled was calculated.
Figure S3. Single administration of PTX-BD4-3 reduces foot slip errors in Het mice. Mice received a single injection of PTX-BD4-3 (P.1, P.5, P.50) one hour prior to the beginning of foot slip testing. n = 10-23 animals derived from 3 […]
***p<0.001 compared to saline-treated Wt mice (V, black bar), †p<0.05 compared to saline-treated Het mice (V, grey bar); One-Way ANOVA with LSD post-hoc analysis. […]

[3] = tested on: heterozygous (Het) female Mecp2 mutant mice; assay: Whole-body plethysmography (apnea index); assay type: in vivo, mouse
Experimental: as §1
Breathing was recorded in unrestrained Wt and Het mice using a whole-body plethysmograph (EMMS Systems), in which a constant bias flow supply connected to the animal recording chamber ensured continuous inflow of fresh air (1 l/min) and ambient temperature was maintained between 23°C and 25°C. Animals were allowed to acclimate in the recording chambers for 30 min, and respiratory data were collected for the next 3 h. Because respiration is strongly influenced by behavioral state, data were only analyzed from periods of quiet breathing, which was defined as periods when the animal was not moving and had all four paws on the chamber floor. In most experiments, aggregated episodes of quiet breathing totaling at least 10 min were used for analysis. […] Apneas were defined as breathing pauses longer than 2× the average total breath duration (Ttot) measured during quiet breathing and are reported here as apneas/min (apnea index).

[4] = tested on: heterozygous (Het) female Mecp2 mutant mice; assay: Forelimb grip strength; assay type: in vivo, mouse; conditions: chronic intermittent 5 mg/kg q72 h
Experimental: This improvement is consistent with previous reports of motor learning in response to repeated exposure to Rotarod testing ([Buitrago et al., 2004]). […] To investigate this possibility, we evaluated Rotarod performance in additional cohorts of animals that received chronic intermittent dosing with PTX-BD4-3 and only one exposure to Rotarod testing, at the end of the 8-week treatment period (Fig. 7A).
Fig. 7. […] (A) Repeated dosing with PTX-BD4-3 (5 mg/kg, q72 h) for 8 weeks had no impact on latency to fall in animals that were tested only at the end of the 8-week treatment period. Rotarod performance was measured over three successive trials, 24 h after the last dose. n=15-16 subjects derived from two independent experiments. (B) Het mice show no deficit in forelimb grip strength compared to Wt controls, and no increase in grip strength in response to treatment with PTX-BD4-3. n=9-20 subjects derived from two independent experiments. *P<0.05, **P<0.001 compared to saline-treated Wt mice. One-way ANOVA with LSD post hoc analysis. Black, saline-treated Wt mice; gray, saline-treated Het mice; red, PTX-BD4-3-treated Het mice.

Structure (SMILES): O=C(NCCO)c1cc(C(=O)NCCO)cc(C(=O)NCCO)c1 [LM22A-4, N,N′,N′′-tris(2-hydroxyethyl)-1,3,5-benzenetricarboxamide, reference compound]
- binding within the panel of 55 receptors [1]: no significant binding

Structure (SMILES): COCCN(C)C(=O)c1cc(C(=O)N(C)CCOC)cc(C(=O)N(C)CCOC)c1 [PTX-BD4-3, benzene-1,3,5-tricarboxylic acid tris-[(2-methoxy-ethyl)-methyl-amide]]
- survival of 3T3-p75 cells (3T3-p75 cells): no effect
- foot slip errors [2]: no reduction
- apnea index ([3]; Het mice, 5 mg/kg i.p. q72 h for 4 weeks, 24 h after last dose, vs saline-treated Het): significantly reduced
- apnea index ([3]; Het mice, 5 mg/kg i.p. q72 h for 8 weeks, 24 h after last dose, vs saline-treated Het): significantly reduced
- apnea index ([3]; single dose 5 mg/kg i.p., drug-naïve mice at 24 weeks of age, 24 h after dosing): no change
- forelimb grip strength [4]: no gain in grip strength
